Values quoted from earlier work in patent US10137245B2 (priority 2010, dated 2018).

What was measured:
healthy human volunteers = conditions: intrathecal morphine group; extremely low plasma levels; Bailey and colleagues
human surgical patients = conditions: propofol concentration, Shafer et al 1988

In the case of `CN1CC[C@]23c4c5ccc(O)c4O[C@H]2[C@@H](O)C=C[C@H]3[C@H]1C5` [morphine], the “Effect on HRV” value (healthy human volunteers) is given as “substantial reduction”.
For `CC(C)c1cccc(C(C)C)c1O` [propofol, 2,6-diisopropylphenol], the EC50 for awakening (human surgical patients) is given as 1.07 ± 0.13 mg/L and the EC50 for orientation (human surgical patients) is given as 0.95 ± 0.19 mg/L.
